Source: patent US11766412B2, “Methods of treating or alleviating adenylosuccinatelyase (ADSL) deficiency using spermidine or a pharmaceutically acceptable salt of spermidine” (GENEHEAL BIOTECHNOLOGY CO., LTD., priority 2016, dated 2023)
Non-standard residues stand in square brackets, D forms with d. Residues, ends and D or L forms follow the SMILES beside them. Arg(NO2) = N=C(NCCC[C@H](N)C(=O)O)N[N+](=O)[O-]; Dab = NCC[C@H](N)C(=O)O

These compounds were tested on SAICAR synthetase (assay: Inhibition of SAICAR accumulation, biochemical enzyme activity experiments and cell biology experiments).
Description: On the basis of the above results, the crystal structure conformations in SAICAR synthetases of Saccharomyces cerevisiae (PDB: 2CNQ) and Escherichia coli (PDB: 2GQS) are used as receptor structures for calculating and screening, since there is no conformation which can bind CAIR in human PAICS crystal structure, and no catalytic conformation formed in the catalytic region, and the results obtained by calculation are not reliable. 4661 of small molecule drugs in the DrugBank (www.drugbank.ca) are calculated and screened by using the ligand fit module of Discovery studio. The conformations are ordered according to dock scores, and then the first 500 conformations are selected. After eliminating the repetitions, key screening results are obtained. In addition, the inhibition ratios of the compounds against SAICAR accumulation are confirmed by biochemical enzyme activity experiments and cell biology experiments, as shown in Table 1.

| Compound | Inhibition ratios against SAICAR accumulation [%] |
| --- | --- |
| N[C@@H](CCC(=O)N[C@@H](CSCc1ccc([N+](=O)[O-])cc1)C(=O)NCC(=O)O)C(=O)O [D1303686, S-(P-Nitrobenzyl)Glutathione] | 63.83 |
| N[C@@H](CCC(=O)N[C@@H](CSCc1cccc(I)c1)C(=O)NCC(=O)O)C(=O)O [DB04341, S-(3-Iodobenzyl)Glutathione] | 9.9 |
| NC(=NCCCC(N)C(=O)O)NC(CC(=O)O)C(=O)O (stereo not drawn) [DB02267, Argininosuccinate] | 86.81 |
| CN(C)c1ncnc2c1ncn2[C@@H]1O[C@H](COP(=O)(O)O)[C@@H](N)[C@H]1O [DB04602, PUROMYCIN AMINONUCLEOSIDE-5′-MONOPHOSPHATE] | 12.9 |
| N[C@@H](CCCCNC(C(=O)O)C(=O)O)C(=O)O [DB01815, Nz-(Dicarboxymethyl)Lysine] | 22.68 |
| C[C@@H](NC(=O)CCCC[C@H](NC(=O)CN)C(=O)O)C(=O)O [DB03927, Glycyl-L-Alpha-Amino-Epsilon-Pimelyl-D-Alanine] | 29.859 |
| N[C@@H](CCC(=O)N[C@@H](CS(=O)O)C(=O)NCC(=O)O)C(=O)O [DB04700, GLUTATHIONE SULFINATE] | 9.98 |
| Nc1ncnc2c1ncn2[C@@H]1O[C@H](COP(=O)(O)OC(=O)[C@@H](N)CC(=O)O)[C@@H](O)[C@H]1O [DB01895, Aspartyl-Adenosine-5′-Monophosphate] | 22.918 |
| NCCC[C@H](NC(=O)CCC(=O)O)C(=O)O [DB03582, N-2-Succinylornithine] | 19.97 |
| CC(N)C(CCCCCC(=O)O)NC(=O)OP(=O)(O)O (stereo not drawn) [DB02927, Mixed Carbamic Phosphoric Acid Anhydride of 7,8-Diaminononanic acid] | 22.8 |
| CC(N)C(CCCCCC(=O)O)CC(=O)O (stereo not drawn) [DB02941, 3-(1-Aminoethyl)Nonanedioic Acid] | 69.8 |
| Cc1ncc(COP(=O)(O)O)c(CN[C@H](CCC(=O)O)C(=O)O)c1O [DB04762, N-PYRIDOXYL-D-GLUTAMIC ACID-5′-MONOPHOSPHATE] | 27.7 |
| Cc1ccc(OCC(=CC=O)Nc2cc(C[C@H](N)C(=O)O)c(O)cc2O)cc1 [DB02537, 2 -Hydroxy-5-({1-[(4-Methylphenoxy)Methyl]-3-Oxoprop-1-Enyl}Amino)-L-Tyrosin] | 71.1 |
| NC(CSC1C=C(C(N)C(=O)O)ON1)C(=O)O (stereo not drawn) [DB01974, 2-Amino-3-[5-(Amino-Carboxy-Methyl)-2,3-Dihydro-Isoxazol-3-Ylsulfanyl]-Propionic Acid] | 66.711 |
| C=C[C@@H](NC(=O)[C@H](CS)NC(=O)CCC[C@H](N)C(=O)O)C(=O)O [DB03427, Delta-(L-Alpha-Aminoadipoyl)-L-Cysteinyl-D-Vinylglycine] | 13.3 |
| NCCCCCCNCCCCCCN [DB04684, BIS(HEXAMETHYLENE)TRIAMINE] | 9.3 |
| O=c1[nH]cnc2c([C@@H]3N[C@H](COP(=O)(O)O)[C@@H](O)[C@H]3O)c[nH]c12 [DB02075, (1s)-1-(9-Deazahypoxanthin-9-yl)-1,4-Di Deoxy-1,4-Imino-D-Ribitol-5-Phosphate] | 28.5 |
| Cc1cccc(C2=C(c3ccc4ncccc4n3)CNN2)n1 [DB04434, Naphthyridine Inhibitor] | 22.98 |
| N[C@@H](CCC(=O)N[C@@H](CSCO)C(=O)NCC(=O)O)C(=O)O [DB04153, S-Hydroxymethyl Glutathione] | 58 |
| N[C@@H](CCC(=O)N[C@@H](CS(=O)(=O)O)C(=O)NCC(=O)O)C(=O)O [DB03003, Glutathione Sulfonic acid] | 38 |

| Compound | Inhibition ratios against SAICAR accumulation [%] |
| --- | --- |
| CN(CC[C@H](N)CC(=O)N[C@H]1C=C[C@H](N2C=C[C@@](N)(O)NC2=O)O[C@@H]1C(=O)O)C(=N)N [DB04649, TETRAHEDRAL INTERMEDIATE OF BLASTICIDIN S] | 20.09 |
| CC(N)C(CCCCCC(=O)O)NC(=O)O (stereo not drawn) [DB03624, 7-(Carboxyamino)-8-Amino-Nonanoic Acid] | 51.9 |
| NC(CCCCN[C@@H](CCC(=O)O)C(=O)O)C(=O)O (stereo partly drawn) [DB04207, N-(5-Amino-5-Carboxypentyl)-Glutamic Acid] | 65.69 |
| N[C@@H](CSC1CC(CC(=O)O)ON1N)C(=O)O (stereo partly drawn) [DB04323, 2-Amino-3-(Cystein-S-Yl)-Isoxazolidin-5-Yl-Acetic acid] | 56.68 |
| C[C@H](NC(=NCC(=O)O)Nc1ccc(C#N)cc1)c1ccccc1 [DB04778, SC45647] | 11.29 |
| NCC[C@H](NC(=O)[C@@H](N)CCCN=C(N)N[N+](=O)[O-])C(N)=O [DB01821, L-N(Omega)-Nitroarginine-2,4-L-Diaminobutyric Amide] (H-[Arg(NO2)]-[Dab]-NH2) | 57.11 |
| NCCCCNCCCN [DB03566, Spermidine] | 68.98 |
| NCCC[C@H](NC(=O)CP(=O)(O)O)C(=O)O [DB02011, N-(phosphonoacetyl)-L-Ornithine] | 41.85 |
| Cc1ncc(COP(=O)(O)O)c(CN[C@@H](CCC(=O)O)C(=O)O)c1O [DB01813, Pyridoxyl-Glutamic Acid-5′-Monophosphate] | 40.9 |
| Cc1ncc(COP(=O)(O)O)c(CNCC(=O)O)c1O [DB02824, N-Pyridoxyl-Glycine-5-Monophosphate] | 77.97 |
| N[C@@H](CCC(=O)N[C@@H](CSCc1ccccc1)C(=O)NCC(=O)O)C(=O)O [DB03602, S-Benzyl-Glutathione] | 36.5 |
| N[C@@H](Cc1cc(N=Nc2ccccn2)c(O)cc1O)C(=O)O [DB01634, 2-Oxy-4-Hydroxy-5-(2-Hydrazinopyridine)Phenylalanine] | 23.7 |
| NC[C@H]1O[C@H](O[C@H]2[C@H](O)[C@@H](O)[C@H](N)C[C@@H]2N)[C@H](N)[C@@H](O)[C@@H]1O [D1304808, Neamine] | 37.11 |
| CSC[C@H](NC(=O)CC[C@H](N)C(=O)O)C(=O)NCC(=O)O [DB04701, S-METHYL-GLUTATHIONE] | 40.1 |
| N-ethyl-N[3-(propylamino)propyl]propane-1,3-diamine [DB04633] | 12.798 |
| OCC(OS(O)(O)O)[C@H](O)CN1C[C@@H](O)[C@H](O)[C@H]1CO (stereo partly drawn) [DB02492, Ghavamiol] | 17.4 |
| Cc1ncc(COP(=O)(O)O)c(CNC(C(C)C)P(=O)(O)O)c1O (stereo not drawn) [DB03433, {[(3-Hydroxy-2-Methyl-5-Phosphonooxymethyl-Pyridin-4-ylmethyl)-Amino]-2-Methyl-Propyl}-Phosphonic Acid] | 53.38 |
| NC(CC1=CC(=NC2CC2c2ccccc2)C(O)=CC1=O)C(=O)O (stereo not drawn) [DB01657, 2-Amino-3-[4-Hydroxy-6-Oxo-3-(2-Phenyl-Cyclopropylimino)-Cyclohexa-1,4-Dienyl]-Propionic acid] | 22.9 |
| NC(=O)[C@@H]1C[C@@H](NC(=O)[C@@H](N)CCCN=C(N)N[N+](=O)[O-])CN1 [DB02077, L-N(Omega)-Nitroarginine-(4r)-Amino-L-Proline Amide] | 71.8 |
